Laboratory results: patent US20070128217A1 (priority 2003, published 2007)

What was measured:
[1] = test system: rabbit serum obtained by immunizing a rabbit with the SARS-CoV strain Frankfurt 1; type: binding; set-up: Binding of a rabbit serum to linear peptides / Binding of a rabbit serum to looped peptides / Rabbit serum linear peptides / Rabbit serum looped peptides / Binding of a rabbit serum to linear peptides of protein N of SARS-CoV Urbani (Rabbit serum linear peptides) / Binding of a rabbit serum to looped/cyclic peptides of protein N of SARS-CoV Urbani (Rabbit serum looped peptides): unit not given here
[2] = test system: antibodies in sera from SARS patients (sera 1a, 1b, 2, 6, 37, 62, London, SARS-yellow, SARS-green); type: binding, human; set-up: Binding of serum 6 to linear peptides of protein X1 of SARS-CoV Urbani / Binding of serum 37 to linear peptides of protein X1 of SARS-CoV Urbani / Binding of serum 6 to looped/cyclic peptide (PEPSCAN-ELISA) / Binding of serum 37 to looped/cyclic peptide (PEPSCAN-ELISA) / Binding of serum 37 to looped/cyclic peptides of protein X1 of SARS-CoV Urbani / Binding of serum 6 to linear peptides of protein X2 / Binding of serum 37 to linear peptides of protein X2 / Binding of serum 37 to looped/cyclic peptides of protein X2 of SARS-CoV Urbani / Binding of serum 6 to linear peptides of protein M of SARS-CoV Urbani / Binding of serum 37 to linear peptides of protein M of SARS-CoV Urbani / Binding of serum 6 to looped/cyclic peptides of protein M of SARS-CoV Urbani / Binding of serum 37 to looped/cyclic peptides of protein M of SARS-CoV Urbani / Binding of serum 6 to linear peptides of protein X3 of SARS-CoV Urbani / Binding of serum 37 to linear peptides of protein X3 of SARS-CoV Urbani / Binding of serum 37 to looped/cyclic peptides of protein X3 of SARS-CoV Urbani / Binding of serum 6 to linear peptides of protein X4 of SARS-CoV Urbani / Binding of serum 37 to linear peptides of protein X4 of SARS-CoV Urbani / Binding of serum 37 to looped/cyclic peptides of protein X4 of SARS-CoV Urbani / Binding of serum 6 to linear peptides of protein X5 of SARS-CoV Urbani / Binding of serum 37 to linear peptides of protein X5 of SARS-CoV Urbani / Binding of serum 37 to looped/cyclic peptides of protein X5 of SARS-CoV Urbani / Binding of serum 6 to linear peptides of protein N of SARS-CoV Urbani / Binding of serum 37 to linear peptides of protein N of SARS-CoV Urbani / Binding of serum 6 to linear peptide (PEPSCAN-ELISA) / Binding of serum 1a to looped/cyclic peptides of protein N of SARS-CoV Urbani / Binding of serum 1b to looped/cyclic peptides of protein N of SARS-CoV Urbani / Binding of serum 2 to looped/cyclic peptides of protein N of SARS-CoV Urbani / Binding of serum 6 to looped/cyclic peptides of protein N of SARS-CoV Urbani / Binding of serum 37 to looped/cyclic peptides of protein N of SARS-CoV Urbani / Binding of serum 62 to looped/cyclic peptides of protein N of SARS-CoV Urbani / Binding of serum London to looped/cyclic peptides of protein N of SARS-CoV Urbani / Binding of serum SARS-green to looped/cyclic peptides of protein N of SARS-CoV Urbani: unit not given here
[3] = test system: control sera (pooled serum of ten healthy LUMC hospital workers; commercial negative donor pooled serum from the Dutch bloodbank); type: binding, human; set-up: Binding of Control serum LUMC to linear peptides / Binding of Control serum Blood-bank to linear peptides / Binding of Control serum LUMC to looped peptides / Binding of Control Serum Blood-Bank to Looped peptides / Binding of Control serum LUMC to linear peptides of the protein M of SARS-CoV Urbani / Binding of Control serum Blood-bank to linear peptides of the protein M of SARS-CoV Urbani / Binding of Control serum LUMC to looped peptides of the protein M of SARS-CoV Urbani / Binding of Control Serum Blood-Bank to Looped peptides of the protein M of SARS-CoV Urbani: unit not given here

VFTSCELYHYQECVR
Rabbit serum linear peptides [1]: 0.5 | Rabbit serum looped peptides [1]: 0.5 | Binding of serum 1a to linear peptides of protein X4 of SARS-CoV Urbani [2]: 0.8 | Binding of serum 1a to looped/cyclic peptides of protein X4 of SARS-CoV Urbani [2]: 0.8 | Binding of serum 1b to linear peptides of protein X4 of SARS-CoV Urbani [2]: 0.6 | Binding of serum 1b to looped/cyclic peptides of protein X4 of SARS-CoV Urbani [2]: 0.7 | Binding of serum 2 to linear peptides of protein X4 of SARS-CoV Urbani [2]: 0.4 | Binding of serum 2 to looped/cyclic peptides of protein X4 of SARS-CoV Urbani [2]: 0.7 | Binding of serum 6 to linear peptides of protein X4 of SARS-CoV Urbani [2]: 0.7 | Binding of serum 6 to looped/cyclic peptides of protein X4 of SARS-CoV Urbani [2]: 0.7 | Binding of serum 37 to linear peptides of protein X4 of SARS-CoV Urbani [2]: 0.8 | Binding of serum 37 to looped/cyclic peptides of protein X4 of SARS-CoV Urbani [2]: 0.8 | Binding of serum 62 to linear peptides of protein X4 of SARS-CoV Urbani [2]: 0.8 | Binding of serum 62 to looped/cyclic peptides of protein X4 of SARS-CoV Urbani [2]: 0.7 | Binding of serum London to linear peptides of protein X4 of SARS-CoV Urbani [2]: 0.7 | Binding of serum London to looped/cyclic peptides of protein X4 of SARS-CoV Urbani [2]: 0.3 | Binding of serum SARS-green to linear peptides of protein X4 of SARS-CoV Urbani [2]: 0.7 | Binding of serum SARS-green to looped/cyclic peptides of protein X4 of SARS-CoV Urbani [2]: 0.7 | Binding of serum SARS-yellow to linear peptides of protein X4 of SARS-CoV Urbani [2]: 0.3 | Binding of serum SARS-yellow to looped/cyclic peptides of protein X4 of SARS-CoV Urbani [2]: 0.5 | Binding of Control Serum Blood-Bank to Looped peptides [3]: 0.7 | Binding of Control serum Blood-bank to linear peptides [3]: 0.7 | Binding of Control serum LUMC to linear peptides [3]: 0.5 | Binding of Control serum LUMC to looped peptides [3]: 0.9

VGLMWLSYFVASFRL
Rabbit serum linear peptides [1]: 0.0 | Rabbit serum looped peptides [1]: 0.4 | Binding of serum 1a to linear peptides of protein M of SARS-CoV Urbani [2]: 0.6 | Binding of serum 1a to looped/cyclic peptides of protein M of SARS-CoV Urbani [2]: 0.6 | Binding of serum 1b to linear peptides of protein M of SARS-CoV Urbani [2]: 0.5 | Binding of serum 1b to looped/cyclic peptides of protein M of SARS-CoV Urbani [2]: 0.3 | Binding of serum 2 to linear peptides of protein M of SARS-CoV Urbani [2]: 0.4 | Binding of serum 2 to looped/cyclic peptides of protein M of SARS-CoV Urbani [2]: 0.5 | Binding of serum 6 to linear peptides of protein M of SARS-CoV Urbani [2]: 0.5 | Binding of serum 6 to looped/cyclic peptides of protein M of SARS-CoV Urbani [2]: 0.5 | Binding of serum 37 to linear peptides of protein M of SARS-CoV Urbani [2]: 0.4 | Binding of serum 37 to looped/cyclic peptides of protein M of SARS-CoV Urbani [2]: 0.6 | Binding of serum 62 to linear peptides of protein M of SARS-CoV Urbani [2]: 0.4 | Binding of serum 62 to looped/cyclic peptides of protein M of SARS-CoV Urbani [2]: 0.5 | Binding of serum London to linear peptides of protein M of SARS-CoV Urbani [2]: 0.5 | Binding of serum London to looped/cyclic peptides of protein M of SARS-CoV Urbani [2]: 0.2 | Binding of serum SARS-green to linear peptides of protein M of SARS-CoV Urbani [2]: 0.4 | Binding of serum SARS-green to looped/cyclic peptides of protein M of SARS-CoV Urbani [2]: 0.2 | Binding of serum SARS-yellow to linear peptides of protein M of SARS-CoV Urbani [2]: 0.1 | Binding of serum SARS-yellow to looped/cyclic peptides of protein M of SARS-CoV Urbani [2]: 0.8 | Binding of Control Serum Blood-Bank to Looped peptides of the protein M of SARS-CoV Urbani [3]: 0.6 | Binding of Control serum Blood-bank to linear peptides of the protein M of SARS-CoV Urbani [3]: 0.6 | Binding of Control serum LUMC to linear peptides of the protein M of SARS-CoV Urbani [3]: 0.5 | Binding of Control serum LUMC to looped peptides of the protein M of SARS-CoV Urbani [3]: 0.6

VGTDSGFAAYNRYRI
Rabbit serum linear peptides [1]: 0.4 | Rabbit serum looped peptides [1]: 0.0 | Binding of serum 1a to linear peptides of protein M of SARS-CoV Urbani [2]: 0.8 | Binding of serum 1a to looped/cyclic peptides of protein M of SARS-CoV Urbani [2]: 0.7 | Binding of serum 1b to linear peptides of protein M of SARS-CoV Urbani [2]: 0.4 | Binding of serum 1b to looped/cyclic peptides of protein M of SARS-CoV Urbani [2]: 0.4 | Binding of serum 2 to linear peptides of protein M of SARS-CoV Urbani [2]: 0.4 | Binding of serum 2 to looped/cyclic peptides of protein M of SARS-CoV Urbani [2]: 0.7 | Binding of serum 6 to linear peptides of protein M of SARS-CoV Urbani [2]: 0.3 | Binding of serum 6 to looped/cyclic peptides of protein M of SARS-CoV Urbani [2]: 0.6 | Binding of serum 37 to linear peptides of protein M of SARS-CoV Urbani [2]: 0.6 | Binding of serum 37 to looped/cyclic peptides of protein M of SARS-CoV Urbani [2]: 0.7 | Binding of serum 62 to linear peptides of protein M of SARS-CoV Urbani [2]: 0.7 | Binding of serum 62 to looped/cyclic peptides of protein M of SARS-CoV Urbani [2]: 0.8 | Binding of serum London to linear peptides of protein M of SARS-CoV Urbani [2]: 0.3 | Binding of serum London to looped/cyclic peptides of protein M of SARS-CoV Urbani [2]: 0.2 | Binding of serum SARS-green to linear peptides of protein M of SARS-CoV Urbani [2]: 0.3 | Binding of serum SARS-green to looped/cyclic peptides of protein M of SARS-CoV Urbani [2]: 0.4 | Binding of serum SARS-yellow to linear peptides of protein M of SARS-CoV Urbani [2]: 0.1 | Binding of serum SARS-yellow to looped/cyclic peptides of protein M of SARS-CoV Urbani [2]: 0.5 | Binding of Control Serum Blood-Bank to Looped peptides of the protein M of SARS-CoV Urbani [3]: 0.5 | Binding of Control serum Blood-bank to linear peptides of the protein M of SARS-CoV Urbani [3]: 0.7 | Binding of Control serum LUMC to linear peptides of the protein M of SARS-CoV Urbani [3]: 0.3 | Binding of Control serum LUMC to looped peptides of the protein M of SARS-CoV Urbani [3]: 0.6
